In patent publication US11008605B2, “Analysis of single-stranded RNA” (VILNIUS UNIVERSITY, priority 2015, dated 2021):

What was measured:
[1] = biological target: T1, Dm-piRMT (Drosophila melanogaster, UniProt Q7K175); test: Metal ion requirement of piRMT methylation of ssRNA miR173.1 (NaIO4/β-elimination, PAG autoradiography); type: biochemical; set-up: modification efficiency towards RNA substrates with different 3′ terminal nucleotides (U, C, A, G): dose or concentration left out as unconfirmed
T1 sequence (Q7K175 1-391): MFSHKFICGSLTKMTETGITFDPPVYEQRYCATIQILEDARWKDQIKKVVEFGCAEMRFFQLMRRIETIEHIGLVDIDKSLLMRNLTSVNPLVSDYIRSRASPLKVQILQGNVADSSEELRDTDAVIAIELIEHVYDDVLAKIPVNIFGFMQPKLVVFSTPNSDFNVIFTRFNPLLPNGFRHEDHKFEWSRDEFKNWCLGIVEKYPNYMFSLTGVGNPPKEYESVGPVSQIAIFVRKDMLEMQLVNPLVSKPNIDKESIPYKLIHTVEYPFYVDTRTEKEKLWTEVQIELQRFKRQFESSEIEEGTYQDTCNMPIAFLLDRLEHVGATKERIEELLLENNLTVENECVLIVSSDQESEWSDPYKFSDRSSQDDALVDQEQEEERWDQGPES
Protocol: To test the requirement of different metal cofactors, 20 μl reaction volumes, containing reaction buffer [10 mM Tris-HCl (pH 7.4), 50 mM NaCl, 0.1 mg/ml BSA, 5% (v/v) glycerol and 0.05 u/μl RiboLock (Thermo Scientific)], 0.2 μM ^32P-labelled miR173.1 (5′-[…]-3′, 22 nt) (SEQ ID NO: 3), 0.1 mM AdoMet, […] After 30 min of incubation at 37° C., the degree of modification was determined by NaIO4/β-elimination reaction, during which RNA was treated with 0.2 mM NaIO4 in borax/boric acid buffer [0.06 M, pH 8.6] for 15 min followed by 75 min incubation in borax/boric acid buffer II [0.06 M pH 9.6] at 42° C. Reaction samples were analyzed in 13% denaturing polyacrylamide gel (PAG) and autoradiographed. Fractions of methylated RNA, represented by bands with lower electrophoretic mobility, were evaluated using Multi Gauge version 3.0 software (Fujifilm). The depletion of metal ions by EDTA in the reaction mixture, together with the sample without any metal cofactor added, further confirms that the effective piRMT methylation is due to Co^2+ and Co^3+ ions. B. Column-diagram of RNA methylation efficiency with different metal cofactors. Results are average of duplicate experiments±S.D.
B. Column-diagram of modification efficiency of miR173.1 with different 3′ terminal nucleotides. Results are average of two experiments±S.D.

[2] = biological target: T2, Hs-piRMT (Homo sapiens, UniProt Q5T8I9); test: as above; type: biochemical; conditions: 10 mM metal ion, 1 μM piRMT, 0.2 μM miR173.1, 0.1 mM AdoMet, 30 min, 37° C.
T2 sequence (Q5T8I9 whole entry): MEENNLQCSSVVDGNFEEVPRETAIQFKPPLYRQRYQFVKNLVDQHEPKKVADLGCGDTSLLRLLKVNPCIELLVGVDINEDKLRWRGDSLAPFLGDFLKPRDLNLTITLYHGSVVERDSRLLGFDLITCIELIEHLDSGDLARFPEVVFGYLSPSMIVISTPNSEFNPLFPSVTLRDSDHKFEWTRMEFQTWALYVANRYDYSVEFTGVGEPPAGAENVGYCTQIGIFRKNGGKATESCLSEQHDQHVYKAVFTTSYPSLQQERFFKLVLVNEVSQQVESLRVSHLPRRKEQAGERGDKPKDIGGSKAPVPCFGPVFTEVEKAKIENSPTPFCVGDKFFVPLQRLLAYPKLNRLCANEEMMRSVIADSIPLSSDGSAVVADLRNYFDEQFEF
Protocol: To test the requirement of different metal cofactors, 20 μl reaction volumes, containing reaction buffer [10 mM Tris-HCl (pH 7.4), 50 mM NaCl, 0.1 mg/ml BSA, 5% (v/v) glycerol and 0.05 u/μl RiboLock (Thermo Scientific)], 0.2 μM ^32P-labelled miR173.1 (5′-[…]-3′, 22 nt) (SEQ ID NO: 3), 0.1 mM AdoMet, 10 mM metal ion and 1 μM of piRMT proteins' were mixed. After 30 min of incubation at 37° C., the degree of modification was determined by NaIO4/β-elimination reaction, during which RNA was treated with 0.2 mM NaIO4 in borax/boric acid buffer [0.06 M, pH 8.6] for 15 min followed by 75 min incubation in borax/boric acid buffer II [0.06 M pH 9.6] at 42° C. Reaction samples were analyzed in 13% denaturing polyacrylamide gel (PAG) and autoradiographed. Fractions of methylated RNA, represented by bands with lower electrophoretic mobility, were evaluated using Multi Gauge version 3.0 software (Fujifilm). The depletion of metal ions by EDTA in the reaction mixture, together with the sample without any metal cofactor added, further confirms that the effective piRMT methylation is due to Co^2+ and Co^3+ ions. B. Column-diagram of RNA methylation efficiency with different metal cofactors. Results are average of duplicate experiments±S.D.

[3] = biological target: T2, Hs-piRMT; conditions: Mn2+ as metal cofactor; cited from earlier work

degree of methylation of ssRNA substrate with metal ion cofactor ([1]; 10 mM metal ion, 1 μM piRMT, 0.2 μM miR173.1, 0.1 mM AdoMet, 30 min, 37° C.) | modification efficiency towards RNA substrates with different 3′ terminal nucleotides (U, C, A, G) ([1]; Co2+ as metal cofactor, miR173.1 variants) | degree of methylation of ssRNA substrate with metal ion cofactor [2] | Structure (SMILES) | RNA modification level in presence of metal ion [3]
full methylation | equally effective modification | full methylation | [Co+2] [Co^2+] | –
– | – | – | [Mn+2] [Mn^2+] | seemingly low levels
